{"source": "patent US20220411372A1", "about": "“SMALL-MOLECULE INHIBITORS FOR THE B-CATENIN/B-CELL LYMPHOMA 9 PROTEIN-PROTEIN INTERACTION” (H. Lee Moffitt Cancer Center and Research Institute, Inc., priority 2019, published 2022)"}
{"target": "T1, β-catenin/BCL9 PPI (Homo sapiens, UniProt P35222)", "T1 construct": "Full-length β-catenin (residues 1-781) were cloned into a pET-28b vector; made in house; host or cells: E. coli BL21 DE3 (β-catenin); BCL9 peptide synthesized by InnoPep Inc", "T1 sequence (P35222 1-781)": "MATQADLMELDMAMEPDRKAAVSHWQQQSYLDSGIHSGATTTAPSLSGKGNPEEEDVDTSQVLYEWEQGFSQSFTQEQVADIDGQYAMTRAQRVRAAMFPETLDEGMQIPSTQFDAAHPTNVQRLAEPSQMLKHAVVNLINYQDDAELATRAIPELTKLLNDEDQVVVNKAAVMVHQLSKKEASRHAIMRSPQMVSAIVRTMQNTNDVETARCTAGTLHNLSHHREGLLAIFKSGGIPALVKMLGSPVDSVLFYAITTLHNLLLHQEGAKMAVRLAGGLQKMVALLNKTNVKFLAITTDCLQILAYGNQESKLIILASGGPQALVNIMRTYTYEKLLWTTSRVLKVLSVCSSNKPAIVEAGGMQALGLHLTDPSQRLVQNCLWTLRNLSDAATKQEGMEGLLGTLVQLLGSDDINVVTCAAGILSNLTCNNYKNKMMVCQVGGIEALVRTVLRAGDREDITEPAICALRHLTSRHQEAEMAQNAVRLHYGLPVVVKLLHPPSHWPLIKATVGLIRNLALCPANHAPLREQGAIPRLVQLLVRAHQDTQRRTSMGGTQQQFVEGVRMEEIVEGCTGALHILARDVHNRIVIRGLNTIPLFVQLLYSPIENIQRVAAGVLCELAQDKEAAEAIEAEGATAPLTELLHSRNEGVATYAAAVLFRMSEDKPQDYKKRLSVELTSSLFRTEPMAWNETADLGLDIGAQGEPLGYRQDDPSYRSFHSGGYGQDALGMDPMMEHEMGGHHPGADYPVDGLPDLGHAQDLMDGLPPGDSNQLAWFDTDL", "test": "AlphaScreen competitive inhibition assay of the β-catenin/BCL9 PPI", "type": "binding", "details": "Table 3, inhibitors 27-43; read-out: Ki", "experimental": "(§1) AlphaScreen Assays of β-Catenin and BCL9 Interaction. Experiments were performed in white opaque 384-well plates from PerkinElmer (Waltham, Mass.), and the samples were read on a Synergy 2 plate reader (Biotek, Winooski, Vt.) with excitation at 680 nm and emission at 570 nm. The standard AlphaScreen protocol was used with a sensitivity setting of 200. All dilutions were made in 1× assay buffer containing 25 mM Hepes (pH 7.4), 100 mM NaCl, 0.01% Triton X-100 and 0.1% BSA to minimize nonspecific interactions.\n(§2) For the β-catenin/BCL9 assay, 5 nM biotinylated BCL9 and 40 nM His6-tagged β-catenin were incubated in assay buffer at 4° C. for 30 min. For the β-catenin/E-cadherin assay, 10 nM biotinylated human E-cadherin, and 40 nM His6-tagged human β-catenin were added and incubated in assay buffer at 4° C. for 30 min. Different concentrations of the tested inhibitor were added and incubated in 20 μL assay buffer at 4° C. for another 1 h. All of the assay plates were covered and gently mixed on an orbital shaker. The donor and acceptor beads were then added to the plates to a final concentration of 10 μg/mL in […]. The mixture was incubated for 1 h at 4° C. before detection. The IC50 value was determined by nonlinear least-square analysis of GraphPad Prism 5.0. […] All of the experiments were performed in triplicate and carried out in the presence of 1% DMSO for small-molecule inhibitors. Each compound was assayed at least by two independent experiments. The results were expressed as mean±standard deviation. The inhibitor selectivity for β-catenin/BCL9 over β-catenin/E-canderin interactions was defined as the ratio of the respective Ki value of β-catenin/E-cadherin interactions over that of β-catenin/BCL9 interactions.", "units": {"Ki": "µM"}}
{"smiles": "CC(C)(Oc1cccc(N2CCC[C@@H](C(=O)N(Cc3ccc(C(C)(C)C)cc3)C3CC3)C2)c1)C(=O)N1CCNCC1", "note": "[Compound 28, (R)-4-(2-(3-(3-((4-(tert-butyl)benzyl)(cyclopropyl)carbamoyl)piperidin-1-yl)phenoxy)-2-methylpropanoyl)piperazin-1-ium chloride]", "Ki": "≤ 30"}
{"smiles": "CC(C)(Oc1cccc(N2CCC[C@@H](C(=O)N(Cc3ccc(C4CCCCC4)cc3)C3CC3)C2)c1)C(=O)N1CCNCC1", "note": "[Compound 29, (R)-4-(2-(3-(3-((4-cyclohexylbenzyl)(cyclopropyl)carbamoyl)piperidin-1-yl)phenoxy)-2-methylpropanoyl)piperazin-1-ium chloride]", "Ki": "≤ 5"}
{"smiles": "CC(C)(Oc1cccc(N2CCC[C@@H](C(=O)N(Cc3ccc(-c4ccccc4)cc3)C3CC3)C2)c1)C(=O)N1CCNCC1", "note": "[Compound 31, (R)-4-(2-(3-(3-(([1,1′-biphenyl]-4-ylmethyl)(cyclopropyl)carbamoyl)piperidin-1-yl)phenoxy)-2-methylpropanoyl)piperazin-1-ium chloride]", "Ki": "< 5"}
{"smiles": "CC(C)(Oc1cccc(N2CCC[C@@H](C(=O)N(Cc3ccc(-c4ccsc4)cc3)C3CC3)C2)c1)C(=O)N1CCNCC1", "note": "[Compound 32, (R)-4-(2-(3-(3-(cyclopropyl(4-(thiophen-3-yl)benzyl)carbamoyl)piperidin-1-yl)phenoxy)-2-methylpropanoyl)piperazin-1-ium chloride]", "Ki": "< 5"}
{"smiles": "CC(C)(Oc1cccc(N2CCC[C@@H](C(=O)N(Cc3ccc(-c4ccccn4)cc3)C3CC3)C2)c1)C(=O)N1CCNCC1", "note": "[Compound 33, (R)-4-(2-(3-(3-(cyclopropyl(4-(pyridin-2-yl)benzyl)carbamoyl)piperidin-1-yl)phenoxy)-2-methylpropanoyl)piperazin-1-ium chloride]", "Ki": "< 90"}
{"smiles": "CC(C)(Oc1cccc(N2CCC[C@@H](C(=O)N(Cc3ccc(-c4ccncc4)cc3)C3CC3)C2)c1)C(=O)N1CCNCC1", "note": "[Compound 35, (R)-4-(2-(3-(3-(cyclopropyl(4-(pyridin-4-yl)benzyl)carbamoyl)piperidin-1-yl)phenoxy)-2-methylpropanoyl)piperazin-1-ium chloride]", "Ki": "< 90"}
{"smiles": "Cn1cc(-c2ccc(CN(C(=O)[C@@H]3CCCN(c4cccc(OC(C)(C)C(=O)N5CCNCC5)c4)C3)C3CC3)cc2)cn1", "note": "[Compound 38, (R)-4-(2-(3-(3-(cyclopropyl(4-(1-methyl-11/-pyrazol-4-yl)benzyl)carbamoyl)piperidin-1-yl)phenoxy)-2-methylpropanoyl)piperazin-1-ium chloride]", "Ki": "≤ 90"}
{"smiles": "Cc1n[nH]cc1-c1ccc(CN(C(=O)[C@@H]2CCCN(c3cccc(OC(C)(C)C(=O)N4CCNCC4)c3)C2)C2CC2)cc1", "note": "[Compound 39, (R)-4-(2-(3-(3-(cyclopropyl(4-(3-methyl-1H-pyrazol-4-yl)benzyl)carbamoyl)piperidin-1-yl)phenoxy)-2-methylpropanoyl)piperazin-1-ium chloride]", "Ki": "≤ 50"}
{"smiles": "Cc1n[nH]c(C)c1-c1ccc(CN(C(=O)[C@@H]2CCCN(c3cccc(OC(C)(C)C(=O)N4CCNCC4)c3)C2)C2CC2)cc1", "note": "[Compound 40, (R)-4-(2-(3-(3-(cyclopropyl(4-(3,5-dimethyl-1H-pyrazol-4-yl)benzyl)carbamoyl)piperidin-1-yl)phenoxy)-2-methylpropanoyl)piperazin-1-ium chloride]", "Ki": "< 10"}
{"smiles": "Cc1noc(C)c1-c1ccc(CN(C(=O)[C@@H]2CCCN(c3cccc(OC(C)(C)C(=O)N4CCNCC4)c3)C2)C2CC2)cc1", "note": "[Compound 41, (R)-4-(2-(3-(3-(cyclopropyl(4-(3,5-dimethylisoxazol-4-yl)benzyl)carbamoyl)piperidin-1-yl)phenoxy)-2-methylpropanoyl)piperazin-1-ium chloride]", "Ki": "< 30"}
{"smiles": "CC(C)(Oc1cccc(N2CCC[C@@H](C(=O)N(Cc3ccc(-c4c[nH]c5ccccc45)cc3)C3CC3)C2)c1)C(=O)N1CCNCC1", "note": "[Compound 42, (R)-4-(2-(3-(3-((4-(1H-indol-3-yl)benzyl)(cyclopropyl)carbamoyl)piperidin-1-yl)phenoxy)-2-methylpropanoyl)piperazin-1-ium]", "Ki": "< 5"}
{"target": "T1, β-catenin/BCL9 PPI", "test": "AlphaScreen competitive inhibition assay of the β-catenin/BCL9 PPI", "type": "binding", "details": "Table 4, left half, inhibitors 44-48; read-out: Ki", "experimental": "as §1, §2", "units": {"Ki": "µM"}}
{"smiles": "CN(Cc1ccc(-c2cn[nH]c2)cc1)C(=O)[C@@H]1CCCN(c2cccc(OC(C)(C)C(=O)N3CCNCC3)c2)C1", "note": "[Compound 45, (R)-4-(2-(3-(3-((4-(1H-pyrazol-4-yl)benzyl)(methyl)carbamoyl)piperidin-1-yl)phenoxy)-2-methylpropanoyl)piperazin-1-ium chloride]", "Ki": "< 30"}
{"smiles": "CC(C)N(Cc1ccc(-c2cn[nH]c2)cc1)C(=O)[C@@H]1CCCN(c2cccc(OC(C)(C)C(=O)N3CCNCC3)c2)C1", "note": "[Compound 47, (R)-4-(2-(3-(3-((4-(1H-pyrazol-4-yl)benzyl)(isopropyl)carbamoyl)piperidin-1-yl)phenoxy)-2-methylpropanoyl)piperazin-1-ium chloride]", "Ki": "< 10"}
{"smiles": "CC(C)(Oc1cccc(N2CCC[C@@H](C(=O)N(Cc3ccc(-c4cn[nH]c4)cc3)CC3CC3)C2)c1)C(=O)N1CCNCC1", "note": "[Compound 48, (R)-4-(2-(3-(3-((4-(1H-pyrazol-4-yl)benzyl)(cyclopropylmethyl)carbamoyl)piperidin-1-yl)phenoxy)-2-methylpropanoyl)piperazin-1-ium chloride]", "Ki": "< 90"}
{"target": "T1, β-catenin/BCL9 PPI", "test": "AlphaScreen competitive inhibition assay of the β-catenin/BCL9 PPI", "type": "binding", "details": "Table 4, right half, inhibitors 49-53; read-out: Ki ± SD", "experimental": "as §1, §2", "units": {"Ki": "µM"}}
{"smiles": "CC(C)(Oc1cccc(N2CCC[C@@H](C(=O)N(Cc3ccc(-c4cn[nH]c4)cc3)C3CCC3)C2)c1)C(=O)N1CCNCC1", "note": "[Compound 49, (R)-4-(2-(3-(3-((4-(1H-pyrazol-4-yl)benzyl)(cyclobutyl)carbamoyl)piperidin-1-yl)phenoxy)-2-methylpropanoyl)piperazin-1-ium chloride]", "Ki": "< 30"}
{"smiles": "CC(C)(Oc1cccc(N2CCC[C@@H](C(=O)N(Cc3ccc(-c4cn[nH]c4)cc3)C3CCCC3)C2)c1)C(=O)N1CCNCC1", "note": "[Compound 50, (R)-4-(2-(3-(3-((4-(1H-pyrazol-4-yl)benzyl)(cyclopentyl)carbamoyl)piperidin-1-yl)phenoxy)-2-methylpropanoyl)piperazin-1-ium chloride]", "Ki": "< 10"}
{"smiles": "CC(C)(Oc1cccc(N2CCC[C@@H](C(=O)N(Cc3ccc(-c4cn[nH]c4)cc3)C3CCCCC3)C2)c1)C(=O)N1CCNCC1", "note": "[Compound 51, (R)-4-(2-(3-(3-((4-(1H-pyrazol-4-yl)benzyl)(cyclohexyl)carbamoyl)piperidin-1-yl)phenoxy)-2-methylpropanoyl)piperazin-1-ium chloride]", "Ki": "< 30"}
{"smiles": "CCOCCN(Cc1ccc(-c2cn[nH]c2)cc1)C(=O)[C@@H]1CCCN(c2cccc(OC(C)(C)C(=O)N3CCNCC3)c2)C1.Cl", "note": "[Compound 52, (R)-4-(2-(3-(3-((4-(1H-pyrazol-4-yl)benzyl)(2-ethoxyethyl)carbamoyl)piperidin-1-yl)phenoxy)-2-methylpropanoyl)piperazin-1-ium chloride]", "Ki": "< 5"}
{"smiles": "CC(C)(Oc1cccc(N2CCC[C@@H](C(=O)N(CCN)Cc3ccc(-c4cn[nH]c4)cc3)C2)c1)C(=O)N1CCNCC1", "note": "[Compound 53, (R)-4-(2-(3-(3-((4-(1H-pyrazol-4-yl)benzyl)(2-ammonioethyl)carbamoyl)piperidin-1-yl)phenoxy)-2-methylpropanoyl)piperazin-1-ium chloride]", "Ki": "< 90"}
{"target": "T1, β-catenin/BCL9 PPI", "test": "AlphaScreen competitive inhibition assay of the β-catenin/BCL9 PPI", "type": "binding", "details": "Table 5, inhibitors 54-62; read-out: Ki", "experimental": "as §1, §2", "units": {"Ki": "µM"}}
{"smiles": "CC(C)(Oc1cccc(N2CCC[C@@H](C(=O)N(Cc3ccc(-c4cn[nH]c4)cc3)C3CC3)C2)c1)C(=O)N1CCCNCC1", "note": "[Compound 54, (R)-4-(2-(3-(3-((4-(1H-pyrazol-4-yl)benzyl)(cyclopropyl)carbamoyl)piperidin-1-yl)phenoxy)-2-methylpropanoyl)-1,4-diazepan-1-ium chloride]", "Ki": "< 10"}
{"target": "T1, β-catenin/BCL9 PPI", "test": "AlphaScreen competitive inhibition assay of the β-catenin/BCL9 PPI", "type": "binding", "details": "linear alkyl R1 substitutions; FIG. 4A", "experimental": "as §1, §2"}
{"smiles": "CCOCCN(Cc1ccc(-c2cn[nH]c2)cc1)C(=O)[C@@H]1CCCN(c2cccc(OC(C)(C)C(=O)N3CCNCC3)c2)C1.Cl", "note": "[Compound 52, (R)-4-(2-(3-(3-((4-(1H-pyrazol-4-yl)benzyl)(2-ethoxyethyl)carbamoyl)piperidin-1-yl)phenoxy)-2-methylpropanoyl)piperazin-1-ium chloride]", "inhibitory activity (SAR, AlphaScreen)": "maintained the inhibitory activities"}
